Reference: paper PMC4729137, “Functional analysis of androgen receptor mutations that confer anti-androgen resistance identified in circulating cell-free DNA from prostate cancer patients” (Genome Biology, 2016)
Substitutions are numbered along the chain they refer to.

Key:
E894K-AR [1] = target: T1, E894K-AR (Homo sapiens, UniProt P10275, E894K); experiment: cell-based
T1 sequence (P10275 1-920 E894K): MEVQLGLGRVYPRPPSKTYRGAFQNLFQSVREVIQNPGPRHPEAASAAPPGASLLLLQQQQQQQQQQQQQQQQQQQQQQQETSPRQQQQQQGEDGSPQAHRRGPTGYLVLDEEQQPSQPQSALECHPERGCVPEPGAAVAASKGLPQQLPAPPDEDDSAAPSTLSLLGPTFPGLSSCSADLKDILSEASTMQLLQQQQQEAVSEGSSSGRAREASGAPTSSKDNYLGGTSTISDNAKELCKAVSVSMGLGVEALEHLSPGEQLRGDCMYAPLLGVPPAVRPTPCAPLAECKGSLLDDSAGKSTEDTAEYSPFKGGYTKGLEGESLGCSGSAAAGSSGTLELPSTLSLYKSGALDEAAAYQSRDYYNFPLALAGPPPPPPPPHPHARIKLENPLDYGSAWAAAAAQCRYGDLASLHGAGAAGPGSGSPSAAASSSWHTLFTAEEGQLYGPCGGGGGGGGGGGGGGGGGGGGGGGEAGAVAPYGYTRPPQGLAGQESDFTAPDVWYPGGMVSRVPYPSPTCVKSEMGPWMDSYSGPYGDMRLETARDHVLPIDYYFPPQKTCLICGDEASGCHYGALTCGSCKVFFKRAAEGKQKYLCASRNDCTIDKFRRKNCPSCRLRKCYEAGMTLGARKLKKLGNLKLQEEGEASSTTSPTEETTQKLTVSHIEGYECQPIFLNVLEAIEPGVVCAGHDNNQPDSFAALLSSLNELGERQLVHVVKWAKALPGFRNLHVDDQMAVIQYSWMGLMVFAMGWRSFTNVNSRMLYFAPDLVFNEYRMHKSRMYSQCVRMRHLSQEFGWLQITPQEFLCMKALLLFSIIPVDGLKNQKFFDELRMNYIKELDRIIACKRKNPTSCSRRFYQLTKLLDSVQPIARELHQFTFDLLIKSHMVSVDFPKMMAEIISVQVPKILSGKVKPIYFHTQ

M896T-AR = target: T2, M896T-AR (Homo sapiens, UniProt P10275, M896T); assay type: cell-based; conditions: AR mutant M896T; transfected PC3 cells; 0.1 nM R1881; drug 0 to 50 μM
T2 sequence (P10275 1-920 M896T): T1 sequence (P10275 1-920 E894K) with K894E, M896T
Text: (§1) Full-length human AR (WT-AR) was encoded on a pcDNA3.1 expression plasmid (Life technologies). The LBD point mutations (single and multiple) were generated using the QuikChange II Site-Directed Mutagenesis Kit (Agilent Technologies) as per manufacturer’s instructions using WT-AR as the template. The mutagenic oligonucleotide primers were designed individually with the desired mutation in the middle of the primer with approximately 10 to 15 bases of correct sequence on both sides.
(§2) PC3 cells were seeded and transfected as described above. […] A non-stimulated/no R1881 control was used. After 24 h, cells were lysed and AR-dependent luciferase activity was quantified. Each concentration was assayed in quadruplicate n = 4, with a biological replicate of n = 3. Results were averaged and normalized by expressing them as a percentage of WT AR activity.

E894K-AR [2] = target: T1, E894K-AR; assay type: cell-based; conditions: AR mutant E894K; transfected PC3 cells; 0.1 nM R1881; drug 0 to 50 μM
Text: as §1, §2

| Agonist response to treatment (M896T-AR) | Agonist response to treatment (E894K-AR [2]) | Structure (SMILES) | EC50 (E894K-AR [1]) |
| --- | --- | --- | --- |
| – | – | C[C@]12CCC(=O)C=C1CC[C@@H]1[C@@H]2[C@@H](O)C[C@@]2(C)[C@H]1CC[C@]2(O)C(=O)CO [hydrocortisone] | > 0.5 µM |
| Partial | Partial | CC(C)(O)C(=O)Nc1ccc([N+](=O)[O-])c(C(F)(F)F)c1 [Hydroxyflutamide, hydroxyflutamide] | – |
